According to ChEMBL document CHEMBL5727145, “Aminoindane-, aminotetrahydronaphthalene- and aminobenzocyclobutane-derived PRMT5-inhibitors” (2018):

Biological target: Protein arginine N-methyltransferase 5 (Homo sapiens, UniProt O14744)
Assay: iochemical Assay: Compounds of the invention may be tested for in vitro activity in the following assay: A histone H4 derived peptide is used as substrate (amino acid sequence: […]NH2). Full-length PRMT5 enzyme (NCBI Reference sequence NP-006100.2) was co-expressed with Hiss-MEP50 in insect cells and purified via Nickel immobilized metal affinity and gel filtration chromatograph.The 6 μL assay reactions are run in Greiner brand black 384-well low volume plates. All reactions contained assay buffer (phosphate buffered saline, 0.01% (v/v) Tween-20, 0.01% (w/v) albumin from chicken egg white, 1 mM dithiothreitol, 200 nM peptide substrate, 1 μM S-Adenosyl methionine, and 15 ng/reaction enzyme, with the enzyme being omitted from negative control reactions. Compounds were added in a volume of 100 nL from dilution series prepared in DMSO, positive and negative control reactions receiving the same volume DMSO without compound. The plates were sealed with adhesive seals and incubated for 4 hours at 37° C. Reaction progress was measured using the Transcreener™ EPIGEN methyltransferase assay (BellBrook Labs, Madison, Wis.) as recommended by the manufacturer. To each reaction 2 μL detection mix were added, containing coupling enzymes, fluorescence polarisation tracer, and AMP antibody. […]

Sequence of Protein arginine N-methyltransferase 5 (O14744 whole entry): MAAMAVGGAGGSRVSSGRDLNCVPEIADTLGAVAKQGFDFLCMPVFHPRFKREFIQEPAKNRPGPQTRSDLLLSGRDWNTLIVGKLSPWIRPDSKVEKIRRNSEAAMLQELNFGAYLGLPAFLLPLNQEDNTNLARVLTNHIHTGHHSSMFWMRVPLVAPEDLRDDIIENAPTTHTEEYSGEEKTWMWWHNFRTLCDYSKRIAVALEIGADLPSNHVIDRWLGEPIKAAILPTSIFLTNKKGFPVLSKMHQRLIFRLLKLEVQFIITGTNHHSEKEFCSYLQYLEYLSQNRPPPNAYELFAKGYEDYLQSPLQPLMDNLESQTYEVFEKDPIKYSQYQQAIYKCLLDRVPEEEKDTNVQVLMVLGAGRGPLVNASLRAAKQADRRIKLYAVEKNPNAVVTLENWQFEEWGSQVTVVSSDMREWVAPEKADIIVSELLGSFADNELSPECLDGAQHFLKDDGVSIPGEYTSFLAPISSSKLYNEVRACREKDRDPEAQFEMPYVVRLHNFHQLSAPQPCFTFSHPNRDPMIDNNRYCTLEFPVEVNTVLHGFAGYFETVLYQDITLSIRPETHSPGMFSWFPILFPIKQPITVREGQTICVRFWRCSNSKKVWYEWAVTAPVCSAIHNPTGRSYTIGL

IC50 [µM] | SMILES
31.4 | CNC(=O)c1cccc(C(=O)NC[C@@H](O)CNC2Cc3ccccc3C2)c1
2.45 | COc1ccc(-c2cc(C(=O)NC[C@H](O)CNC3Cc4ccccc4C3)on2)cc1
